The text below walks through data of US20110098241A1, “RAPAMYCIN ANALOGS AS ANTI-CANCER AGENTS” (PONIARD PHARMACEUTICALS, INC., priority 2008, published 2011).

The experiment addresses T1, mTOR (UniProt P42346+P62942).
T1 construct: purchased Calbiochem CBA055
Kind of experiment: mTOR Assay Screening Protocol (K-LISA mTOR Activity Kit, inhibitor with FKBP12). The experiment is classed as biochemical. Particulars: mTOR Standard pre-incubated with inhibitor and FKBP12 (35-37 ug/ml); p70S6K-T389 phosphorylation ELISA, absorbance at 450 nm. How it is done: mTOR Assay Screening Protocol
Kit: Calbiochem Cat. No. CBA055: K-LISA mTOR Activity Kit
The following table provides reagent preparation instructions to obtain the volume of Working Solutions (WS) required for 10 wells. Volumes can be scaled to process more samples and provide overage for pipetting error.
Reagent Volume (per 10-well strip) Composition: mTOR Substrate WS: 1 ml Dilution factor: 1:400 FKBP12: Sigma F5398 FK-Binding Protein human, recombinant, expressed in Escherichia coli
A. Protocol for mTOR Kinase Activity and Inhibitor Screening: 1. Remove the required number of strips from the Glutathione-Coated 96-Well Plate and place them in the 96-well frame. 2. Add 100 μl mTOR Substrate WS to each well and incubate for 1 h at room temperature. 3. When performing inhibitor screening/testing, pre-incubate 50 μl mTOR Standard (from step 2) with test inhibitor or wortmannin in a separate tube on ice for 20 min (for example 50 μl mTOR Standard with 1 μl Woltmannin, 50×). This pre-incubation can be carried out during the incubation in step 2. • For inhibitor testing: weigh out inhibitor and resuspend in DMSO to a concentration of 5 mM prior to addition to assay • Test concentrations for inhibitors in assay ranged from 10 uM-0.0048 uM (final concentrations) • Inhibitor reaction contained: mTOR Standard, inhibitor (at indicated concentration) and FKBP12 (at 35-37 ug/ml) • Dilutions of inhibitors made in TBS • Controls for assay include: mTOR Standard only, mTOR Substrate only (blank), FKBP12+mTOR Standard (no inhibitor), inhibitor compound+mTOR Standard (no FKBP12), 4. Aspirate contents of the wells and wash each well of the Glutathione-Coated 96-Well Plate with 200 μl TBS. Empty the contents of the wells into the sink and dry the wells by tapping the inverted plate on paper towels. Repeat for a total of 3 washes. 5. Add the following components to each well in the specified order: […]
mTOR Standard or mTOR Sample* (diluted to assay range with phosphate-free buffer or water): 50 μl 2× Kinase Assay Buffer WS: 50 μl
*Pre-incubated with inhibitor in step 3 or without inhibitor 6. Cover the plate with the Plate Sealer, mix with a plate shaker or equivalent for 30 seconds, and incubate for 30 minutes at 30° C. 7. Stop the kinase reaction by adding 10 μl Kinase Stop Solution to each well. (Reaction may also be stopped simply by discarding the contents of the wells). 8. Aspirate the contents of each well and wash with 200 μl Plate Wash (1×). Gently agitate the plate using a plate shaker or equivalent for 5 min. Empty the contents of the wells into the sink and dry the wells by tapping the inverted plate on paper towels. Wash the plate 2 more times without shaking the plate. 9. Add 100 μl Anti-p70S6K-T389 WS to each well, cover the plate with the Plate Sealer, and incubate 1 h at room temperature. 10. Wash the plate 4 times as outlined in step 8 without shaking the plate. 11. Add 100 μl HRP-Antibody Conjugate WS to each well, cover the plate with the Plate Sealer, and incubate 1 h at room temperature. 12. Wash the plate as outlined in step 10. 13. Add 100 μl TMB Substrate to each well, cover the plate with the Plate Sealer, and incubate 5-20 min at room temperature. 14. […] 15. Analyze data using Microsoft Excel and GraphPad Prism software.
(In an ELISA, binding on a coated surface is turned into a signal by an enzyme label.)

pIC50: −log10 of the molar value.

T1 sequence (P62942 2-108 limits assumed, other chains not shown): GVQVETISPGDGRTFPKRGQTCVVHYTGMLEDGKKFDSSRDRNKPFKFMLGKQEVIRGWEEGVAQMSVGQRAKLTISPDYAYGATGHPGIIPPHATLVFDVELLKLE

Turning to `CO[C@H]1C[C@@H]2CC[C@@H](C)[C@@](O)(O2)C(=O)C(=O)N2CCCC[C@H]2C(=O)O[C@H]([C@H](C)C[C@@H]2CC[C@@H](OC(=O)CN(CCO)CCO)[C@H](OC)C2)CC(=O)[C@H](C)/C=C(\C)[C@@H](O)[C@@H](OC)C(=O)[C@H](C)C[C@H](C)/C=C/C=C/C=C/1C` [Example 14, 42-O-[2-(Bis(2-hydroxyethyl)amino)acetyl]-rapamycin], the pIC50 was 6.62.

`CO[C@H]1C[C@@H]2CC[C@@H](C)[C@@](O)(O2)C(=O)C(=O)N2CCCC[C@H]2C(=O)O[C@H]([C@H](C)C[C@@H]2CC[C@@H](OC(=O)NS(=O)(=O)Nc3ccc(O)cc3)[C@H](OC)C2)CC(=O)[C@H](C)/C=C(\C)[C@@H](O)[C@@H](OC)C(=O)[C@H](C)C[C@H](C)/C=C/C=C/C=C/1C` [Example 5, 42-O-[4-Hydroxyanilinsulfonylcarbamyl]-rapamycin] had a pIC50 of 9.00.

As for `CO[C@H]1C[C@@H]2CC[C@@H](C)[C@@](O)(O2)C(=O)C(=O)N2CCCC[C@H]2C(=O)O[C@H]([C@H](C)C[C@@H]2CC[C@@H](OCCCS(=O)(=O)N3CCOCC3)[C@H](OC)C2)CC(=O)[C@H](C)/C=C(\C)[C@@H](O)[C@@H](OC)C(=O)[C@H](C)C[C@H](C)/C=C/C=C/C=C/1C` [Example 17, 42-O-[3-(Morpholinosulfonyl)propyl]-rapamycin], the pIC50 was 6.85.

Turning to `CO[C@H]1C[C@@H]2CC[C@@H](C)[C@@](O)(O2)C(=O)C(=O)N2CCCC[C@H]2C(=O)O[C@H]([C@H](C)C[C@@H]2CC[C@@H](OC(=O)N3CCC(O)CC3)[C@H](OC)C2)CC(=O)[C@H](C)/C=C(\C)[C@@H](O)[C@@H](OC)C(=O)[C@H](C)C[C@H](C)/C=C/C=C/C=C/1C` [Example 15], the pIC50 was 6.68.

Turning to `CO[C@H]1C[C@@H]2CC[C@@H](C)[C@@](O)(O2)C(=O)C(=O)N2CCCC[C@H]2C(=O)O[C@H]([C@H](C)C[C@@H]2CC[C@@H](OC(=O)NS(=O)(=O)N3CCOCC3)[C@H](OC)C2)CC(=O)[C@H](C)/C=C(\C)[C@@H](O)[C@@H](OC)C(=O)[C@H](C)C[C@H](C)/C=C/C=C/C=C/1C` [Example 1, 42-O-[Morpholinosulfonylcarbamyl]-rapamycin], the pIC50 is 8.00.

For `CO[C@H]1C[C@@H]2CC[C@@H](C)[C@@](O)(O2)C(=O)C(=O)N2CCCC[C@H]2C(=O)O[C@H]([C@H](C)C[C@@H]2CC[C@@H](OCCOC[Si](C)(C)C)[C@H](OC)C2)CC(=O)[C@H](C)/C=C(\C)[C@@H](O)[C@@H](OC)C(=O)[C@H](C)C[C@H](C)/C=C/C=C/C=C/1C` [Example 12, 42-O-[2-(Trimethylsilan-methoxy)-ethyl]-rapamycin], the negative logarithm of the IC50 (pIC50) was 7.52.

`CO[C@H]1C[C@@H]2CC[C@@H](C)[C@@](O)(O2)C(=O)C(=O)N2CCCC[C@H]2C(=O)O[C@H]([C@H](C)C[C@@H]2CC[C@@H](OC(=O)NS(=O)(=O)N3CC[C@@H](O)C3)[C@H](OC)C2)CC(=O)[C@H](C)/C=C(\C)[C@@H](O)[C@@H](OC)C(=O)[C@H](C)C[C@H](C)/C=C/C=C/C=C/1C` [Example 4, 42-O—[(R)-3-hydroxypyrrolidin-1-ylsulfonylcarbamyl]-rapamyein] gave a pIC50 of 8.00.

`CO[C@H]1C[C@@H]2CC[C@@H](C)[C@@](O)(O2)C(=O)C(=O)N2CCCC[C@H]2C(=O)O[C@H]([C@H](C)C[C@@H]2CC[C@@H](OC(=O)NS(=O)(=O)N(C)C)[C@H](OC)C2)CC(=O)[C@H](C)/C=C(\C)[C@@H](O)[C@@H](OC)C(=O)[C@H](C)C[C@H](C)/C=C/C=C/C=C/1C` [Example 2, 42-O-[Dimethylaminosulfonylcarbamyl]-rapamycin] gave a pIC50 of 7.52.

For the molecule `CO[C@H]1C[C@@H]2CC[C@@H](C)[C@@](O)(O2)C(=O)C(=O)N2CCCC[C@H]2C(=O)O[C@H]([C@H](C)C[C@@H]2CC[C@@H](OC(=O)N3CCN(C)CC3)[C@H](OC)C2)CC(=O)[C@H](C)/C=C(\C)[C@@H](O)[C@@H](OC)C(=O)[C@H](C)C[C@H](C)/C=C/C=C/C=C/1C` [Example 6, 42-O-[4-Methylpiperazine-1-carboxy]-rapamycin], the pIC50 is 5.60.

On to `CO[C@H]1C[C@@H]2CC[C@@H](C)[C@@](O)(O2)C(=O)C(=O)N2CCCC[C@H]2C(=O)O[C@H]([C@H](C)C[C@@H]2CC[C@@H](OC(=O)CN3CCC(O)CC3)[C@H](OC)C2)CC(=O)[C@H](C)/C=C(\C)[C@@H](O)[C@@H](OC)C(=O)[C@H](C)C[C@H](C)/C=C/C=C/C=C/1C` [Example 8, 42-O-[2-(4-Hydroxypiperidin-1-yl)acetyl]-rapamycin], for which the pIC50 is 7.15.

The molecule `CO[C@H]1C[C@@H]2CC[C@@H](C)[C@@](O)(O2)C(=O)C(=O)N2CCCC[C@H]2C(=O)O[C@H]([C@H](C)C[C@@H]2CC[C@@H](OC[Si](C)(C)C)[C@H](OC)C2)CC(=O)[C@H](C)/C=C(\C)[C@@H](O)[C@@H](OC)C(=O)[C@H](C)C[C@H](C)/C=C/C=C/C=C/1C` [Example 11, 42-O-[Trimethylsilyl-methyl]-rapamycin] showed a pIC50 of 5.64.

Regarding `CO[C@H]1C[C@@H]2CC[C@@H](C)[C@@](O)(O2)C(=O)C(=O)N2CCCC[C@H]2C(=O)O[C@H]([C@H](C)C[C@@H]2CC[C@@H](OC(=O)CN3CCC(CCO)CC3)[C@H](OC)C2)CC(=O)[C@H](C)/C=C(\C)[C@@H](O)[C@@H](OC)C(=O)[C@H](C)C[C@H](C)/C=C/C=C/C=C/1C` [Example 13, 42-O-[2-(4-(2-Hydroxyethyl)piperidin-1-yl)acetyl]rapamycin], the pIC50 was 7.15.

Molecule `CO[C@H]1C[C@@H]2CC[C@@H](C)[C@@](O)(O2)C(=O)C(=O)N2CCCC[C@H]2C(=O)O[C@H]([C@H](C)C[C@@H]2CC[C@@H](OC(=O)NCCN3CCOCC3)[C@H](OC)C2)CC(=O)[C@H](C)/C=C(\C)[C@@H](O)[C@@H](OC)C(=O)[C@H](C)C[C@H](C)/C=C/C=C/C=C/1C` [Example 16, 42-O-(2-Morpholinoethylaminocarbonyl)-rapamycin] had a pIC50 of 6.52.

As to `CO[C@H]1C[C@@H]2CC[C@@H](C)[C@@](O)(O2)C(=O)C(=O)N2CCCC[C@H]2C(=O)O[C@H]([C@H](C)C[C@@H]2CC[C@@H](OC(=O)NS(=O)(=O)N(CCO)CCO)[C@H](OC)C2)CC(=O)[C@H](C)/C=C(\C)[C@@H](O)[C@@H](OC)C(=O)[C@H](C)C[C@H](C)/C=C/C=C/C=C/1C` [Example 3, 42-O—[N,N-Bis(2-hydroxyethyl)aminosulfonylcarbamyl]-rapamycin], the pIC50 was 6.96.

By pIC50 is commonly meant −log10 of the IC50, conventionally taken in molar units. Low values mean a large IC50, high ones a small IC50.
